Test system: powdery mildew of wheat (Erysiphe graminis forma specialis tritici)
Test: Activity against powdery mildew of wheat (protective spray on wheat seedlings, greenhouse)
Format: in vivo
Conditions: evaluated after 7 days
Excerpt: The active ingredients, separately or together, were formulated as a 10% emulsion in a mixture of 70% by weight of cyclohexanone, 20% by weight of Nekanil® LN (Lutensol® AP6, wetting agent having emulsifying and dispersing action, based on ethoxylated alkylphenols) and 10% by weight of Emulphor® EL (Emulan® EL, emulsifier based on ethoxylated fatty alcohols) and diluted with water to give the desired concentration.
Leaves of wheat seedlings cv. “Fr{umlaut over (u )}hgold” which had been grown in pots were sprayed to runoff point with an aqueous preparation of active ingredient which had been made from a stock solution comprising 10% of active compound, 63% of cyclohexanone and 27% of emulsifier, and, 24 hours after the spray coating had dried on, were dusted with spores of powdery mildew of wheat (Erysiphe graminis forma specialis tritici). […] After 7 days, the extent of mildew development was determined visually in % infection of the total leaf area.
Evaluation was carried out by determining the infected leaf areas in percent. […] The efficacy (E) was calculated as follows using Abbot's formula: […]
The expected degrees of action of the mixtures of the active ingredients were determined using Colby's formula [R. S. Colby, Weeds 15, (1967) 20-22] and compared with the observed degrees of action. […]

CO/N=C(/C(=O)OC)c1ccccc1COc1ccccc1C [Ia]
Efficacy in % of the untreated contol (0.3 ppm active ingredient in the spray liquor): 0%
Efficacy in % of the untreated contol (0.6 ppm active ingredient in the spray liquor): 0%
